Columns and labels:
[1] = frontal affinity chromatography (FAC), association constant to PA sugar chains having other L-fucose; format: binding; conditions: for association constant Ka: 25 degrees C.
Summary of the method: (§1)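 Lectin coupled via primary amines to NHS-activated sepharose in a miniature column, run in TBS (pH 7.4) at 0.125 ml/min and 25 degrees C. PA sugar chains (3.75 nM or 7.5 nM) applied in excess, with elution monitored by fluorescence (ex 310/em 380 nm). Ka calculated from front-end delay (V−Vo) versus PA rhamnose and effective ligand amount (Bt).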

[2] = frontal affinity chromatography (FAC), association constant to PA sugar chains without L-fucose; format: binding
Summary of the method: as §1

## Naematoloma sublateritium lectin [NSL]
[1]; FAC
  binding to non-L-fucose α1→6 sugar chain: not detected at all
[1]; Sugar chain No. 419
  association constant Ka: <1000 M⁻¹
[1]; Sugar chain No. 420
  association constant Ka: <1000 M⁻¹
[1]; Sugar chain No. 718
  association constant Ka: <1000 M⁻¹
[1]; Sugar chain No. 719
  association constant Ka: <1000 M⁻¹
[1]; Sugar chain No. 720
  association constant Ka: <1000 M⁻¹
[1]; Sugar chain No. 721
  association constant Ka: <1000 M⁻¹
[1]; Sugar chain No. 722
  association constant Ka: <1000 M⁻¹
[1]; Sugar chain No. 723
  association constant Ka: <1000 M⁻¹
[1]; Sugar chain No. 726
  association constant Ka: <1000 M⁻¹
[1]; Sugar chain No. 727
  association constant Ka: <1000 M⁻¹
[1]; Sugar chain No. 728 (as listed in Table 5/12)
  association constant Ka: <1000 M⁻¹
[1]; Sugar chain No. 729
  association constant Ka: <1000 M⁻¹
[1]; Sugar chain No. 730
  association constant Ka: <1000 M⁻¹
[1]; Sugar chain No. 731
  association constant Ka: <1000 M⁻¹
[1]; Sugar chain No. 739
  association constant Ka: <1000 M⁻¹
[1]; Sugar chain No. 909
  association constant Ka: <1000 M⁻¹
[1]; Sugar chain No. 910
  association constant Ka: <1000 M⁻¹
[1]; Sugar chain No. 931
  association constant Ka: <1000 M⁻¹
[1]; Sugar chain No. 932
  association constant Ka: <1000 M⁻¹
[1]; Sugar chain No. 933
  association constant Ka: <1000 M⁻¹
[2]; FAC
  binding to sugar chain not having L-fucose: not detected at all
[2]; Sugar chain No. 001, sugar chain not having L-fucose
  association constant Ka: <1000 M⁻¹
[2]; Sugar chain No. 002, sugar chain not having L-fucose
  association constant Ka: <1000 M⁻¹
[2]; Sugar chain No. 003, sugar chain not having L-fucose
  association constant Ka: <1000 M⁻¹
[2]; Sugar chain No. 004, sugar chain not having L-fucose
  association constant Ka: <1000 M⁻¹
[2]; Sugar chain No. 005, sugar chain not having L-fucose
  association constant Ka: <1000 M⁻¹
[2]; Sugar chain No. 006, sugar chain not having L-fucose
  association constant Ka: <1000 M⁻¹
[2]; Sugar chain No. 007, sugar chain not having L-fucose
  association constant Ka: <1000 M⁻¹
[2]; Sugar chain No. 008, sugar chain not having L-fucose
  association constant Ka: <1000 M⁻¹
[2]; Sugar chain No. 009, sugar chain not having L-fucose
  association constant Ka: <1000 M⁻¹
[2]; Sugar chain No. 010, sugar chain not having L-fucose
  association constant Ka: <1000 M⁻¹
[2]; Sugar chain No. 011, sugar chain not having L-fucose
  association constant Ka: <1000 M⁻¹
[2]; Sugar chain No. 012, sugar chain not having L-fucose
  association constant Ka: <1000 M⁻¹
[2]; Sugar chain No. 013, sugar chain not having L-fucose
  association constant Ka: <1000 M⁻¹
[2]; Sugar chain No. 014, sugar chain not having L-fucose
  association constant Ka: <1000 M⁻¹
[2]; Sugar chain No. 101, sugar chain not having L-fucose
  association constant Ka: <1000 M⁻¹
[2]; Sugar chain No. 103, sugar chain not having L-fucose
  association constant Ka: <1000 M⁻¹
[2]; Sugar chain No. 104, sugar chain not having L-fucose
  association constant Ka: <1000 M⁻¹
[2]; Sugar chain No. 105, sugar chain not having L-fucose
  association constant Ka: <1000 M⁻¹
[2]; Sugar chain No. 107, sugar chain not having L-fucose
  association constant Ka: <1000 M⁻¹
[2]; Sugar chain No. 108, sugar chain not having L-fucose
  association constant Ka: <1000 M⁻¹
[2]; Sugar chain No. 301, sugar chain not having L-fucose
  association constant Ka: <1000 M⁻¹
[2]; Sugar chain No. 304, sugar chain not having L-fucose
  association constant Ka: <1000 M⁻¹
[2]; Sugar chain No. 305, sugar chain not having L-fucose
  association constant Ka: <1000 M⁻¹
[2]; Sugar chain No. 307, sugar chain not having L-fucose
  association constant Ka: <1000 M⁻¹
[2]; Sugar chain No. 308, sugar chain not having L-fucose
  association constant Ka: <1000 M⁻¹
[2]; Sugar chain No. 313, sugar chain not having L-fucose
  association constant Ka: <1000 M⁻¹
[2]; Sugar chain No. 314, sugar chain not having L-fucose
  association constant Ka: <1000 M⁻¹
[2]; Sugar chain No. 323, sugar chain not having L-fucose
  association constant Ka: <1000 M⁻¹
[2]; Sugar chain No. 501, sugar chain not having L-fucose
  association constant Ka: <1000 M⁻¹
[2]; Sugar chain No. 502, sugar chain not having L-fucose
  association constant Ka: <1000 M⁻¹
[2]; Sugar chain No. 503, sugar chain not having L-fucose
  association constant Ka: <1000 M⁻¹
[2]; Sugar chain No. 504, sugar chain not having L-fucose
  association constant Ka: <1000 M⁻¹
[2]; Sugar chain No. 701, sugar chain not having L-fucose
  association constant Ka: <1000 M⁻¹
[2]; Sugar chain No. 702, sugar chain not having L-fucose
  association constant Ka: <1000 M⁻¹
[2]; Sugar chain No. 703, sugar chain not having L-fucose
  association constant Ka: <1000 M⁻¹
[2]; Sugar chain No. 704, sugar chain not having L-fucose
  association constant Ka: <1000 M⁻¹
[2]; Sugar chain No. 705, sugar chain not having L-fucose
  association constant Ka: <1000 M⁻¹
[2]; Sugar chain No. 706, sugar chain not having L-fucose
  association constant Ka: <1000 M⁻¹
[2]; Sugar chain No. 707, sugar chain not having L-fucose
  association constant Ka: <1000 M⁻¹
[2]; Sugar chain No. 708, sugar chain not having L-fucose
  association constant Ka: <1000 M⁻¹
[2]; Sugar chain No. 709, sugar chain not having L-fucose
  association constant Ka: <1000 M⁻¹
[2]; Sugar chain No. 710, sugar chain not having L-fucose
  association constant Ka: <1000 M⁻¹
[2]; Sugar chain No. 711, sugar chain not having L-fucose
  association constant Ka: <1000 M⁻¹
[2]; Sugar chain No. 712, sugar chain not having L-fucose
  association constant Ka: <1000 M⁻¹
[2]; Sugar chain No. 713, sugar chain not having L-fucose
  association constant Ka: <1000 M⁻¹
[2]; Sugar chain No. 715, sugar chain not having L-fucose
  association constant Ka: <1000 M⁻¹
[2]; Sugar chain No. 716, sugar chain not having L-fucose
  association constant Ka: <1000 M⁻¹
[2]; Sugar chain No. 717, sugar chain not having L-fucose
  association constant Ka: <1000 M⁻¹
[2]; Sugar chain No. 724, sugar chain not having L-fucose
  association constant Ka: <1000 M⁻¹
[2]; Sugar chain No. 725, sugar chain not having L-fucose
  association constant Ka: <1000 M⁻¹
[2]; Sugar chain No. 728, sugar chain not having L-fucose
  association constant Ka: <1000 M⁻¹
[2]; Sugar chain No. 732, sugar chain not having L-fucose
  association constant Ka: <1000 M⁻¹
[2]; Sugar chain No. 733, sugar chain not having L-fucose
  association constant Ka: <1000 M⁻¹
[2]; Sugar chain No. 734, sugar chain not having L-fucose
  association constant Ka: <1000 M⁻¹
[2]; Sugar chain No. 735, sugar chain not having L-fucose
  association constant Ka: <1000 M⁻¹
[2]; Sugar chain No. 736, sugar chain not having L-fucose
  association constant Ka: <1000 M⁻¹
[2]; Sugar chain No. 737, sugar chain not having L-fucose
  association constant Ka: <1000 M⁻¹
[2]; Sugar chain No. 738, sugar chain not having L-fucose
  association constant Ka: <1000 M⁻¹
[2]; Sugar chain No. 901, sugar chain not having L-fucose
  association constant Ka: <1000 M⁻¹
[2]; Sugar chain No. 902, sugar chain not having L-fucose
  association constant Ka: <1000 M⁻¹
[2]; Sugar chain No. 903, sugar chain not having L-fucose
  association constant Ka: <1000 M⁻¹
[2]; Sugar chain No. 905, sugar chain not having L-fucose
  association constant Ka: <1000 M⁻¹
[2]; Sugar chain No. 907, sugar chain not having L-fucose
  association constant Ka: <1000 M⁻¹

From US8461305B2, “L-fucose α1→6 specific lectin” (J-Oil Mills, Inc., priority 2008, dated 2013)
